Measured values published in US20250288584A1, “COMBINATIONS COMPRISING POSITIVE ALLOSTERIC MODULATORS OR ORTHOSTERIC AGONISTS OF METABOTROPIC GLUTAMATERGIC RECEPTOR SUBTYPE 2 AND THEIR USE” (JANSSEN PHARMACEUTICA NV, priority 2014, published 2025).
“And” between values parts separate entries of the source, which are not always exact repeats. Equal entries are not always repeated. Where two headings read alike, the source gives them in different places.

Key:
Type in all cases: in vivo, mice
[1] = system: 6 Hz (32 mA) psychomotor seizures; experiment: 6 Hz psychomotor seizure test, 32 mA (incl. TPE determination)
In short: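 Mice dosed s.c. into a loose skin fold (one compound p.o.) at 0.01 mL/g body weight. Focal seizures induced by corneal stimulation (6 Hz, 0.2 msec rectangular pulse, 3 sec) at 32 mA; absence of stun, forelimb clonus, vibrissae twitching and Straub-tail scored as protection. TPE determined in this assay; ED50 from evenly spaced doses.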

[2] = Minimal motor impairment (rotarod)
[3] = Plasma and brain levels (pK/pD analysis); conditions: for concentration at 0.25 h / concentration at 0.5 h / concentration at 1 h / concentration at 2 h / concentration at 4 h: mouse, plasma, subcutaneous
Method: In various tests, animals were sacrificed following testing, and trunk blood and/or brain tissue (whole brains) was collected for quantification of drug levels. Immediately after testing, animals were decapitated and trunk blood was collected into a BD Vacutainer® tube containing K2EDTA and chilled on ice until centrifugation. Following centrifugation (13000-18000 rpm, 5-7 min), the plasma was removed and transferred to a labeled microcentrifuge tube and stored at −80° C. For brain tissue collection, brains were removed immediately following decapitation and flash frozen. The frozen sample was placed in a labeled centrifuge tube and stored at −80° C.
In addition to recording the efficacy and toxicity data for these compounds alone or in combination, both plasma and brain samples were collected from each of the groups for pharmacokinetic/pharmacokinetic analysis.

[4] = 10 mg/kg s.c., 0.25 h, 32 mA group
[5] = 20 mg/kg s.c., 0.25 h, 32 mA group
[6] = 10 mg/kg, 10 mg/kg s.c., 32 mA group, read-out: Co. No. 25-a mean plasma levels
[7] = 20 mg/kg, 20 mg/kg s.c., 32 mA group, read-out: Co. No. 25-a mean plasma levels

## CCCCn1ccc(N2CCC(c3ccc(F)cc3F)CC2)c(Cl)c1=O [Co. No. 25-a]
[1]; 1 mg/kg s.c., 0.25 h
  # protected/# tested: 1/8
[1]; 5 mg/kg s.c., 0.25 h
  # protected/# tested: 4/8
[1]; 10 mg/kg s.c., 0.25 h
  # protected/# tested: 2/4 and 4/8
[1]; 10 mg/kg s.c., 0.5 h
  # protected/# tested: 1/4
[1]; 10 mg/kg s.c., 1 h
  # protected/# tested: 1/4
[1]; 10 mg/kg s.c., 2 h
  # protected/# tested: 0/4
[1]; 10 mg/kg s.c., 4 h
  # protected/# tested: 0/4
[1]; 15 mg/kg s.c., 0.25 h
  # protected/# tested: 3/8
[1]; 20 mg/kg s.c., 0.25 h
  # protected/# tested: 4/4 and 8/8
[1]; 20 mg/kg s.c., 0.5 h
  # protected/# tested: 3/4
[1]; 20 mg/kg s.c., 1 h
  # protected/# tested: 4/4
[1]; 20 mg/kg s.c., 2 h
  # protected/# tested: 1/4
[1]; 20 mg/kg s.c., 4 h
  # protected/# tested: 1/4
[1]; Mus musculus, sc, at TPE, read-out: ED50 (95% CI) 32 mA
  ED50: 7.7 mg/kg
[1]; s.c., at TPE
  ED50 (95% CI) 32 mA: ED50 (95% CI): 7.7 mg/kg (2.3 to 18.4)
[2]; 1 mg/kg s.c., 0.25 h, 32 mA group
  # rotarod motor impairment/# tested: 0/8
[2]; 5 mg/kg s.c., 0.25 h, 32 mA group
  # rotarod motor impairment/# tested: 0/8
[2]; 5 mg/kg s.c., 0.25 h, 44 mA group
  # rotarod motor impairment/# tested: 1/8
[2]; [4]
  # rotarod motor impairment/# tested: 0/4 and 0/8
[2]; 10 mg/kg s.c., 0.25 h, 44 mA group
  # rotarod motor impairment/# tested: 0/8
[2]; 10 mg/kg s.c., 0.5 h, 32 mA group
  # rotarod motor impairment/# tested: 0/4
[2]; 10 mg/kg s.c., 1 h, 32 mA group
  # rotarod motor impairment/# tested: 1/4
[2]; 10 mg/kg s.c., 2 h, 32 mA group
  # rotarod motor impairment/# tested: 0/4
[2]; 10 mg/kg s.c., 4 h, 32 mA group
  # rotarod motor impairment/# tested: 0/4
[2]; 15 mg/kg s.c., 0.25 h, 32 mA group
  # rotarod motor impairment/# tested: 0/8
[2]; [5]
  # rotarod motor impairment/# tested: 0/4 and 0/8
[2]; 20 mg/kg s.c., 0.25 h, 44 mA group
  # rotarod motor impairment/# tested: 0/8
[2]; 20 mg/kg s.c., 0.5 h, 32 mA group
  # rotarod motor impairment/# tested: 1/4
[2]; 20 mg/kg s.c., 1 h, 32 mA group
  # rotarod motor impairment/# tested: 1/4
[2]; 20 mg/kg s.c., 2 h, 32 mA group
  # rotarod motor impairment/# tested: 0/4
[2]; 20 mg/kg s.c., 4 h, 32 mA group
  # rotarod motor impairment/# tested: 1/4
[2]; 30 mg/kg s.c., 0.25 h, 44 mA group
  # rotarod motor impairment/# tested: 0/8
[2]; 40 mg/kg s.c., 0.25 h, 44 mA group
  # rotarod motor impairment/# tested: 0/8
[3]; [4]
  Co. No. 25-a mean plasma levels (ng/mL): 6,113 ng/mL
[3]; [5]
  Co. No. 25-a mean plasma levels (ng/mL): 5,570 ng/mL
[3]; 1 mg/kg, 1 mg/kg s.c., 0.25 h, 32 mA group, read-out: Co. No. 25-a mean plasma levels
  concentration at 0.25 h: 466 ng/mL
[3]; 5 mg/kg, 5 mg/kg s.c., 0.25 h, 32 mA group, read-out: Co. No. 25-a mean plasma levels
  concentration at 0.25 h: 2560 ng/mL
[3]; 5 mg/kg, 5 mg/kg s.c., 44 mA group, read-out: Co. No. 25-a mean plasma levels
  concentration at 0.25 h: 1430 ng/mL
[3]; 10 mg/kg, 10 mg/kg s.c., 0.25 h, 32 mA group, read-out: Co. No. 25-a mean plasma levels
  concentration at 0.25 h: 11000 ng/mL
[3]; 10 mg/kg, 10 mg/kg s.c., 0.25 h, 32 mA group, read-out: Co. No. 25-a mean plasma levels, statistical outlier removed
  concentration at 0.25 h: 11000 ng/mL
[3]; [6]
  concentration at 0.5 h: 3330 ng/mL
  concentration at 1 h: 700 ng/mL
  concentration at 2 h: 256 ng/mL
  concentration at 4 h: 40 ng/mL
[3]; 10 mg/kg, 10 mg/kg s.c., 44 mA group, read-out: Co. No. 25-a mean plasma levels
  concentration at 0.25 h: 4340 ng/mL
[3]; 10 mg/kg, 10 mg/kg s.c., 44 mA group, read-out: Co. No. 25-a mean plasma levels, statistical outlier removed
  concentration at 0.25 h: 4340 ng/mL
[3]; 15 mg/kg, 15 mg/kg s.c., 0.25 h, 32 mA group, read-out: Co. No. 25-a mean plasma levels
  concentration at 0.25 h: 1200 ng/mL
[3]; 20 mg/kg, 20 mg/kg s.c., 0.25 h, 32 mA group, read-out: Co. No. 25-a mean plasma levels
  concentration at 0.25 h: 4100 ng/mL
[3]; [7]
  concentration at 0.5 h: 2800 ng/mL
  concentration at 1 h: 1760 ng/mL
  concentration at 2 h: 618 ng/mL
  concentration at 4 h: 28 ng/mL
[3]; 20 mg/kg, 20 mg/kg s.c., 44 mA group, read-out: Co. No. 25-a mean plasma levels
  concentration at 0.25 h: 3370 ng/mL
[3]; 30 mg/kg, 30 mg/kg s.c., 44 mA group, read-out: Co. No. 25-a mean plasma levels
  concentration at 0.25 h: 7220 ng/mL
[3]; 40 mg/kg, 40 mg/kg s.c., 44 mA group, read-out: Co. No. 25-a mean plasma levels
  concentration at 0.25 h: 6260 ng/mL
